{
  "source": "patent US6962906B2",
  "about": "“Oligonucleotide analogues, methods of synthesis and methods of use” (Active Motif, priority 2000, dated 2005)",
  "test_system": "Target oligonucleotides (SEQ ID NO:33-36)",
  "test": "Affinity PAGE capture of target DNA and RNA oligonucleotides, detection with ethidium bromide",
  "format": "binding",
  "conditions": "electrophoresis at 40° C.",
  "source_text": "A HypNA-pPNA capture probe with the sequence: (Ch-Tp-Gh-Cp-Ah-Ap-Ah-Gp-Gh-Ap-Ch-Ap-Ch-Cp-Ah-Tp)-dG was synthesized coupled to a 5′ acrylamide residue as described in Example 19. The capture probe was co-polymerized with acrylamide as described in Example 18 in slots of an acrylamide gel as described in Rehman et al. (Nucleic Acids Research 27: 649-655 (1999)). Target oligonucleotides having the sequence: • d([…]) (SEQ ID NO:33)—complementary • d([…]) (SEQ ID NO:34)—mismatched • r([…]) (SEQ ID NO:35)—complementary • r([…]) (SEQ ID NO:36)—mismatched were electrophoresed through lanes of the gel at 40° C.\nFollowing electrophoresis, the gel was stained with ethidium bromide and photographed under UV illumination.",
  "data": [
    {"substance": "(Ch-Tp-Gh-Cp-Ah-Ap-Ah-Gp-Gh-Ap-Ch-Ap-Ch-Cp-Ah-Tp)-dG [capture HypNA-pPNA probe]", "values": [
      {"measurement": "capture of complementary target oligonucleotides in the gel (ethidium bromide fluorescence)", "setting": "complementary DNA and RNA targets, lanes 1, 3, and 5", "value": "ethidium-stained fluorescent hybrids captured by the gel layer"},
      {"measurement": "capture of mismatched target oligonucleotides in the gel (ethidium bromide fluorescence)", "setting": "single nucleobase mismatched DNA and RNA targets, lanes 2, 4, and 6", "value": "did not result in the capture of a target"}
    ]}
  ]
}
